Active and inactive are the calls of the source. The rule behind the calls is not given here.
Molecular target: T1, Neutrophil elastase (Homo sapiens) (UniProt P08246)
T1 sequence (whole entry): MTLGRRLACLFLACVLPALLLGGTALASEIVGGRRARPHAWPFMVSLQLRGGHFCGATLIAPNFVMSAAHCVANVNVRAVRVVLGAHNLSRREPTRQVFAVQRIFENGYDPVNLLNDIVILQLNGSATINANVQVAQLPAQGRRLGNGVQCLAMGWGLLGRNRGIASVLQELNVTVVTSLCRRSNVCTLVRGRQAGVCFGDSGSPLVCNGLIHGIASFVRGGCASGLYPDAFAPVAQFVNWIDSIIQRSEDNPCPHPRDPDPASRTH
Assay: Inhibition of NE in cystic fibrosis patient sputum supernatant at 5 to 10 nM using ABZ-APEEIMRRQ-EDDnp as substrate after 20 mins by spectrophotometric method

CCCC(NC(=O)[C@H](CC(=O)O)NC(=O)[C@H](Cc1ccc(O)cc1)NC(=O)[C@@H](NC(=O)CCCC[C@@H]1SC[C@@H]2NC(=O)N[C@@H]21)C(C)C)P(=O)(Oc1ccc(Cl)cc1)Oc1ccc(Cl)cc1 (stereo partly specified)
inhibition: inactive
